{
  "source": "patent US11026901B2",
  "about": "“Treatment or prevention of cardiovascular events via the administration of a colchicine derivative” (Murray and Poole Enterprises, LTD., priority 2012, dated 2021)",
  "system": "patients with angiographically proven, clinically stable coronary disease",
  "experiment": "LoDoCo trial: cardiovascular events with colchicine 0.5 mg/day added to standard secondary prevention therapy",
  "type": "in vivo, human",
  "description": "We employed a PROBE [Prospective Randomized, Open, Blinded End-point] design\nAll patients signed informed consent before randomization.\nAll other treatments were continued as usual.\nThe secondary outcomes were analysed similarly.",
  "key": {"[1]": {"details": "intention-to-treat, in each group"}, "[2]": {"details": "intention-to-treat, treatment [n = 282] vs control [n = 250]"}, "[3]": {"details": "on-treatment analysis, treatment [n = 243] vs control [n = 250]"}},
  "data": [
    {"smiles": "COc1cc2c(c(OC)c1OC)-c1ccc(OC)c(=O)cc1[C@@H](NC(C)=O)CC2", "note": "[colchicine]", "values": [
      {"measurement": "risk of a cardiovascular event, including an ACS, out of hospital cardiac arrest and non-cardio-embolic ischemic stroke", "setting": "colchicine 0.5 mg/day added to standard therapy, stable coronary disease", "value": "significantly reduces"},
      {"measurement": "patients who died", "setting": "colchicine group (ten in the control group)", "value": 4, "unit": "patients"},
      {"measurement": "Primary Outcome (composite ACS, out of hospital cardiac arrest or non-cardio-embolic ischemic stroke), patients with event", "setting": "intention-to-treat, colchicine 0.5 mg/day [n = 282], median follow up 36 months", "value": 15, "unit": "n"},
      {"measurement": "number needed to treat, primary outcome", "setting": "intention-to-treat, colchicine 0.5 mg/day vs control", "value": 11},
      {"measurement": "stent related ACS with evidence of acute stent thrombosis, patients", "setting": "[1]", "value": 2},
      {"measurement": "stent related ACS with evidence of significant in-stent stenosis, patients", "setting": "[1]", "value": 2},
      {"measurement": "Acute Coronary Syndrome, HR; 95% CI", "setting": "[2]", "value": 0.33},
      {"measurement": "Non-Stent Related ACS, HR; 95% CI", "setting": "[2]", "value": 0.26},
      {"measurement": "Non-Stent Related AMI, HR; 95% CI", "setting": "[2]", "value": 0.25},
      {"measurement": "Non-Stent Related UA, HR; 95% CI", "setting": "[2]", "value": 0.27},
      {"measurement": "Primary Outcome, HR 95% CI", "setting": "intention-to-treat, treatment [n = 282] vs control [n = 250], cox proportional hazards", "value": 0.33},
      {"measurement": "Primary Outcome, patients with event", "setting": "on-treatment analysis (tolerant and compliant beyond first month), colchicine 0.5 mg/day [n = 243]", "value": 11, "unit": "n"},
      {"measurement": "Acute Coronary Syndrome, HR; 95% CI", "setting": "[3]", "value": "0.28 (0.13, 0.58)"},
      {"measurement": "Non-Cardio-Embolic Stroke, HR; 95% CI", "setting": "[3]", "value": "0.27 (0.03, 2.42)"},
      {"measurement": "Non-Stent Related ACS, HR; 95% CI", "setting": "[3]", "value": "0.21 (0.09, 0.50)"},
      {"measurement": "Non-Stent Related AMI, HR; 95% CI", "setting": "[3]", "value": "0.30 (0.10, 0.91)"},
      {"measurement": "Non-Stent Related UA, HR; 95% CI", "setting": "[3]", "value": "0.13 (0.03, 0.57)"},
      {"measurement": "OOH Cardiac Arrest, HR; 95% CI", "setting": "[3]", "value": "0.55 (0.05, 6.03)"}
    ]}
  ]
}
